The results in this text go back to patent US20160237059A1, “HETEROCYCLIC SUBSTITUTED TRIFLUOROMETHYL PYRIMIDINONES AND THEIR USE” (BAYER PHARMA AKTIENGESELLSCHAFT, priority 2013, published 2016).

As usually defined, the IC50 is the concentration that inhibits the measured activity by half. Read a high IC50 as weaker potency in that assay.

What all share (assay type): cell-based
Assay [1] has as its target T1, murine CCR2 (Mus musculus, UniProt P51683).
T1 construct: host or cells: U2OS β-arrestin cell line
The assay can be described thus: Functional β-arrestin recruiting test with human MCP-1 (B-2a). The note with it: U2OS β-arrestin cell line transfected with murine CCR2; agonist human MCP-1 at EC50 (about 3 nM); in some cases means of several determinations. How it is done: The antagonistic action of test substances on CCR2 was determined in a β-arrestin test. The PathHunter β-arrestin GPCR test system (DiscoveRx Corporation, Ltd.) is a cell-based functional method for detecting binding of β-arrestin to an activated receptor. The molecular basis is a […] complementation measured by the enzymatic conversion of a chemiluminescent substrate. The test cell used was a U2OS β-arrestin cell line transfected with murine CCR2 (93-0543C3, DiscoveRx Corporation, Ltd.).
The test substances were dissolved in dimethyl sulphoxide (DMSO) at a concentration of 10 mM and serially diluted with DMSO in steps of 1:3.16 for a 10-point dose/activity analysis. According to the desired test concentrations, the substances were pre-diluted in Tyrode with 2 mM CaCl2 and 0.05% BSA.
The cells, cultivated in MEM Eagle (supplemented with 10% FCS, 50 U/ml of penicillin, 50 μg/ml of streptomycin, 250 μg/ml of hygromycin and 500 μg/ml of geniticin), were sown at 2000 cells/25 μl in 384 well, μCLEAR/black cell culture plates from Greiner (#781092) and incubated at 37° C. for 24 h. The sowing medium consisted of Opti-MEM (supplemented with 1% FCS, 50 U/ml of penicillin and 50 μg/ml of streptomycin). The cells were pre-incubated for 10 min with 10 μl of the test substances diluted in buffer, and 10 μl of agonist solution [human MCP-1 (PeproTech, #300-04) in Tyrode with 0.05% BSA) were then added. The human MCP-1 was employed at the concentration which corresponds to the EC50 which had been determined in a preliminary test (usually about 3 nM). After 90 min of incubation at 37° C., the solution was removed, and recruitment of β-arrestin to CCR2 was detected with the aid of the PathHunter detection reagent (93-001, DiscoveRx Corporation, Ltd.) according to the instructions of the manufacturer. Luminescence was measured after an incubation time of 60 min using a proprietary luminescence imaging measuring instrument. The molar concentration of the test substance which caused 50% inhibition of the MCP-1 effect (IC50) was determined using a 4-parameter logistic function (Hill function).
(Activated receptors often draw arrestin, which recruitment assays turn into a signal.)

A further assay addresses T2, human CCR2 (Homo sapiens, UniProt P41597).
T2 construct: host or cells: Chem-1 cell line
T2 sequence (P41597 1-360 isoform P41597-2): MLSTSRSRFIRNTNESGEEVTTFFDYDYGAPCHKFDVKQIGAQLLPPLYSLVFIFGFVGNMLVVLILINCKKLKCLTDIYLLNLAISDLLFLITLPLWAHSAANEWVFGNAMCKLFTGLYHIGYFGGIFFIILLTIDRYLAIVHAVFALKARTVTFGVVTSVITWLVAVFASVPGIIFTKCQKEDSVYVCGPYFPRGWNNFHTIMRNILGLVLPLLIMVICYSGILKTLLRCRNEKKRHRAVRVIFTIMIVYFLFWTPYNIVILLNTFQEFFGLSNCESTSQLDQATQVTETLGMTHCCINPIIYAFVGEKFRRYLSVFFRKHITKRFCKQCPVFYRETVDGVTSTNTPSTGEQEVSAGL
The assay can be described thus: Functional Ca2+ release test (B-1). The note with it: Chem-1 cell line transfected with human CCR2; 50% inhibition of the MCP-1 effect, MCP-1 at EC50 (about 5 nM); in some cases means of several determinations. Summed up:
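Inhibition of MCP-1-evoked Ca2+ release was measured over 120 s by fluorescence imaging in Fluo-4-loaded, human CCR2-transfected Chem-1 cells. Compounds, tested in 10-point 1:3.16 series, were added 10 min before agonist at its EC50 (typically about 5 nM). IC50 values were obtained by 4-parameter logistic fitting.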

Assay [2] addresses T1, murine CCR2. The assay is described as follows: Functional β-arrestin recruiting test with murine MCP-1 (B-2b). The note with it: U2OS β-arrestin cell line transfected with murine CCR2; agonist murine MCP-1; in some cases means of several determinations. The gist of the method: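 In a PathHunter β-galactosidase complementation assay, U2OS cells expressing murine CCR2 were preincubated 10 min with compound (10-point, 1:3.16 dilutions), then challenged with murine MCP-1 at its predetermined EC50 for 90 min at 37 °C. Luminescence was read after 60 min, and IC50 was fitted with a 4-parameter Hill function.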

T1 sequence (P51683 whole entry): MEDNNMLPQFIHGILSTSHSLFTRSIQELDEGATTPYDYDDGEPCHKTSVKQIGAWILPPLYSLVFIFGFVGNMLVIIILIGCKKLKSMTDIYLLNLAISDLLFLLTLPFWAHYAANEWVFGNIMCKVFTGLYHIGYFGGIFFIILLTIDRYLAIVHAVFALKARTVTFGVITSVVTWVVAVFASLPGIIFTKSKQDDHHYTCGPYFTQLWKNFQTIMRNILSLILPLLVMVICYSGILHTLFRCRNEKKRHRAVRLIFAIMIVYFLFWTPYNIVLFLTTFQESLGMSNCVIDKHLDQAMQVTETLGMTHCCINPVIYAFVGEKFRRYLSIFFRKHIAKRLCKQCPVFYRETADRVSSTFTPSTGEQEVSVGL

Turning to “5-(3,4-dichlorobenzyl-2-(2-methoxypyridin-3-yl)-6-(trifluoromethyl)pyrimidin-4(3H)-one [Example 41]”, the IC50 on murine CCR2 [1] turned out to be 410 nM; against human CCR2, 4.8 nM.
For `O=c1[nH]c(-c2ccccn2)nc(C(F)(F)F)c1Cc1ccc(Cl)c(Cl)c1` [Example 1, 5-(3,4-Dichlorobenzyl)-2-(pyridin-2-yl)-6-(trifluoromethyl)pyrimidin-4(3H)-one] the same measures were 110 nM and 3.5 nM.
As for `O=c1[nH]c(-c2ncc(C(F)(F)F)cc2Cl)nc(C(F)(F)F)c1Oc1ccc(Cl)c(Cl)c1` [Example 6, 2-[3-chloro-5-(trifluoromethyl)pyridin-2-yl]-5-(3,4-dichlorophenoxy)-6-(trifluoromethyl)pyrimidin-4(3H)-one], the results for the IC50 at murine CCR2 [1] and on human CCR2 were 150 nM and 4.8 nM, respectively.
Regarding `O=c1[nH]c(-c2ccc(Cl)cn2)nc(C(F)(F)F)c1Oc1ccc(Cl)c(Cl)c1` [Example 8, 2-(5-chloropyridin-2-yl)-5-(3,4-dichlorophenoxy)-6-(trifluoromethyl)pyrimidin-4(3H)-one], the IC50 on murine CCR2 [1] was found to be 180 nM; against human CCR2, 3.9 nM.
As to `Cc1cccc(-c2nc(C(F)(F)F)c(Oc3ccc(Cl)c(Cl)c3)c(=O)[nH]2)n1` [Example 9, 5-(3,4-dichlorophenoxy)-2-(6-methylpyridin-2-yl)-6-(trifluoromethyl)pyrimidin-4(3H)-one], the IC50 is 180 nM at murine CCR2 [1] and 13 nM against human CCR2.
For the compound `O=c1[nH]c(-c2cccc(Cl)n2)nc(C(F)(F)F)c1Oc1ccc(Cl)c(Cl)c1` [Example 10, 2-(6-chloropyridin-2-yl)-5-(3,4-dichlorophenoxy)-6-(trifluoromethyl)pyrimidin-4(3H)-one], the IC50 came to 140 nM on murine CCR2 [1] and 15 nM against human CCR2.
Regarding `O=c1[nH]c(-c2ncccc2Cl)nc(C(F)(F)F)c1Oc1cccc(Cl)c1` [Example 12, 5-(3-chlorophenoxy)-2-(3-chloropyridin-2-yl)-6-(trifluoromethyl)pyrimidin-4(3H)-one], the IC50 at murine CCR2 [1] came out at 100 nM; on human CCR2 it was 75 nM.
For the compound `O=c1[nH]c(-c2ncccc2Cl)nc(C(F)(F)F)c1Oc1ccc(F)c(F)c1` [Example 13, 2-(3-chloropyridin-2-yl)-5-(3,4-difluorophenoxy)-6-(trifluoromethyl)pyrimidin-4(3H)-one], the IC50 stood at 120 nM at murine CCR2 [1] and 56 nM at human CCR2.
As for `O=c1[nH]c(-c2ncc(F)cc2F)nc(C(F)(F)F)c1Cc1ccc(Cl)c(Cl)c1` [Example 18, 5-(3,4-dichlorobenzyl)-2-(3,5-difluoropyridin-2-yl)-6-(trifluoromethyl)pyrimidin-4(3H)-one], the IC50 on murine CCR2 [1] is 140 nM; on human CCR2, 14 nM.
Regarding `Cc1ccc(-c2nc(C(F)(F)F)c(Cc3ccc(Cl)c(Cl)c3)c(=O)[nH]2)nc1` [Example 19], the half-inhibitory concentration (IC50) on murine CCR2 [1] is 300 nM; at human CCR2, 9.7 nM.
As to `O=c1[nH]c(-c2cccc(Cl)n2)nc(C(F)(F)F)c1Cc1ccc(Cl)c(Cl)c1` [Example 20, 2-(6-chloropyridin-2-yl)-5-(3,4-dichlorobenzyl)-6-(trifluoromethyl)pyrimidin-4(3H)-one], the IC50 on murine CCR2 [1] is 380 nM; on human CCR2, 12 nM.
`O=c1[nH]c(-c2ncc(C(F)(F)F)cc2Cl)nc(C(F)(F)F)c1Cc1ccc(Cl)c(Cl)c1` [Example 21, 2-[3-chloro-5-(trifluoromethyl)pyridin-2-yl]-5-(3,4-dichlorobenzyl)-6-(trifluoromethyl)pyrimidin-4(3H)-one]: the IC50 worked out at 230 nM on murine CCR2 [1] and 28 nM at human CCR2.
Turning to `O=c1[nH]c(-c2ccc(Cl)cn2)nc(C(F)(F)F)c1Cc1ccc(Cl)c(Cl)c1` [Example 22, 2-(5-chloropyridin-2-yl)-5-(3,4-dichlorobenzyl)-6-(trifluoromethyl)pyrimidin-4(3H)-one], the IC50 at murine CCR2 [1] worked out at 400 nM; at human CCR2 it was 7 nM.
`Cc1cccc(-c2nc(C(F)(F)F)c(Cc3ccc(Cl)c(Cl)c3)c(=O)[nH]2)n1` [Example 25, 5-(3,4-dichlorobenzyl)-2-(6-methylpyridin-2-yl)-6-(trifluoromethyl)pyrimidin-4(3H)-one]: the IC50 was 790 nM at murine CCR2 [1] and 33 nM at human CCR2.
On to `COc1cnccc1-c1nc(C(F)(F)F)c(Cc2ccc(Cl)c(Cl)c2)c(=O)[nH]1` [Example 26], for which the IC50 worked out at 190 nM at murine CCR2 [1] and 3.2 nM on human CCR2.
On the same counts, the results for `O=c1[nH]c(-c2cccnc2)nc(C(F)(F)F)c1Cc1ccc(Cl)c(Cl)c1` [Example 27, 5-(3,4-dichlorobenzyl)-2-(pyridin-3-yl)-6-(trifluoromethyl)pyrimidin-4(3H)-one] are 480 nM and 35 nM.
As for `O=c1[nH]c(-c2ccncc2)nc(C(F)(F)F)c1Cc1ccc(Cl)c(Cl)c1` [Example 28, 5-(3,4-dichlorobenzyl)-2-(pyridin-4-yl)-6-(trifluoromethyl)pyrimidin-4(3H)-one], the IC50 at murine CCR2 [1] amounted to 1000 nM; against human CCR2, 49 nM.
Regarding `COc1cc(-c2nc(C(F)(F)F)c(Cc3ccc(Cl)c(Cl)c3)c(=O)[nH]2)ccn1` [Example 29, 5-(3,4-dichlorobenzyl)-2-(2-methoxypyridin-4-yl)-6-(trifluoromethyl)pyrimidin-4(3H)-one], the IC50 was 2600 nM at murine CCR2 [1] and 92 nM against human CCR2.
In the case of `O=c1[nH]c(C2CCNCC2)nc(C(F)(F)F)c1Oc1ccc(Cl)c(C(F)(F)F)c1` [Example 259, 5-[4-chloro-3-(trifluoromethyl)phenoxy]-2-(piperidin-4-yl)-6-(trifluoromethyl)pyrimidin-4(3H)-one], the IC50 at human CCR2 is 624 nM; at murine CCR2 [2], 3530 nM.
With `COc1cn(C)nc1-c1nc(C(F)(F)F)c(Oc2ccc(Cl)c(C(F)(F)F)c2)c(=O)[nH]1` [Example 264, 5-[4-Chloro-3-(trifluoromethyl)phenoxy]-2-(4-methoxy-1-methyl-1H-pyrazol-3-yl)-6-(trifluoromethyl)pyrimidin-4(3H)-one], the IC50 against human CCR2 is 0.4 nM; at murine CCR2 [2] it was 53 nM.
On to `C[S+]([O-])c1cccnc1-c1nc(C(F)(F)F)c(Oc2ccc(Cl)c(C(F)(F)F)c2)c(=O)[nH]1` (stereo not drawn) [Example 265], for which the figures for the IC50 against human CCR2 and at murine CCR2 [2] were 12 nM and 257 nM, respectively.
Consider `CS(=O)(=O)c1cccnc1-c1nc(C(F)(F)F)c(Oc2ccc(Cl)c(C(F)(F)F)c2)c(=O)[nH]1` [Example 266, 5-[4-Chloro-3-(trifluoromethyl)phenoxy]-2-[3-(methylsulphonyl)pyridin-2-yl]-6-(trifluoromethyl)pyrimidin-4(3H)-one], for which the values for the IC50 at human CCR2 and at murine CCR2 [2] were 1.8 nM and 196 nM, respectively.
For `C[S+]([O-])c1cccnc1-c1nc(C(F)(F)F)c(Oc2ccc(Cl)c(Cl)c2)c(=O)[nH]1` (stereo not drawn) [Example 267, 5-(3,4-Dichlorophenoxy)-2-[3-(methylsulphinyl)pyridin-2-yl]-6-(trifluoromethyl)pyrimidin-4(3H)-one] the same measures were 103 nM and 679 nM.
For `CS(=O)(=O)c1cccnc1-c1nc(C(F)(F)F)c(Oc2ccc(Cl)c(Cl)c2)c(=O)[nH]1` [Example 268, 5-(3,4-Dichlorophenoxy)-2-[3-(methylsulphonyl)pyridin-2-yl]-6-(trifluoromethyl)pyrimidin-4(3H)-one] the same measures were 5.8 nM and 484 nM.
